Data taken from ChEMBL document CHEMBL1132390, “Chemical modifications and structure activity studies of ziracin and related everninomicin antibiotics” (1999).
Values after ≈ are worked out from the molar mass of the structure shown. Blank lines part the entries; values can stand above or below the molecule they belong to.

Experiments:
Staphylococcus sp. = assay: In vitro antibacterial activity of compound against Staphylococci bacteria.; assay type: functional
Enterococcus sp. = assay: In vitro antibacterial activity of compound against Enterococci bacteria.; assay type: functional

Compound: C=CCOc1c(Cl)c(C)c(C(=O)O[C@@H]2[C@@H](C)O[C@@H](O[C@H]3[C@H](O)C[C@]4(O[C@@H]5[C@@H](C)O[C@@H](O[C@H]6[C@@H](OC)[C@@H](C)O[C@@H](O[C@H]7[C@H](O)[C@H](OC)[C@H](O[C@@H]8OC[C@@H]9O[C@@]%10(OC[C@@H](OC(=O)c%11c(C)cc(O)cc%11O)[C@@H]%11OCO[C@H]%11%10)O[C@H]9[C@H]8O)O[C@@H]7COC)[C@]6(C)O)[C@@H](O)[C@@]5(C)O4)O[C@@H]3C)C[C@H]2O[C@H]2C[C@](C)([N+](=O)[O-])[C@@H](OC)[C@H](C)O2)c(OC)c1Cl
MIC (Staphylococcus sp.): 4 µg/mL (≈ 2.37 µM)
MIC (Enterococcus sp.): 4 µg/mL (≈ 2.37 µM)

Compound: C=CCOc1cc(C)c(C(=O)O[C@@H]2CO[C@]3(O[C@H]4[C@@H](OCCO)[C@H](O[C@@H]5O[C@H](COC)[C@@H](O[C@@H]6O[C@H](C)[C@H](OC)[C@H](O[C@@H]7O[C@H](C)[C@H]8O[C@]9(C[C@@H](O)[C@H](O[C@H]%10C[C@@H](O[C@H]%11C[C@](C)([N+](=O)[O-])[C@@H](OC)[C@H](C)O%11)[C@H](OC(=O)c%11c(C)c(Cl)c(OCC=C)c(Cl)c%11OC)[C@@H](C)O%10)[C@@H](C)O9)O[C@]8(C)[C@@H]7O)[C@@]6(C)O)[C@H](O)[C@@H]5OC)OC[C@@H]4O3)[C@@H]3OCO[C@H]32)c(OCC=C)c1
MIC (Staphylococcus sp.): 16 µg/mL (≈ 8.84 µM)
MIC (Enterococcus sp.): 8 µg/mL (≈ 4.42 µM)

Compound: COC[C@H]1O[C@@H](O[C@@H]2OC[C@@H]3O[C@@]4(OC[C@@H](OC(=O)c5c(C)cc(O)cc5O)[C@@H]5OCO[C@H]54)O[C@H]3[C@H]2OCC(=O)OC)[C@@H](OC)[C@@H](OCC(=O)OC)[C@@H]1O[C@@H]1O[C@H](C)[C@H](OC)[C@H](O[C@@H]2O[C@H](C)[C@H]3O[C@]4(C[C@@H](O)[C@H](O[C@H]5C[C@@H](O[C@H]6C[C@](C)([N+](=O)[O-])[C@@H](OC)[C@H](C)O6)[C@H](OC(=O)c6c(C)c(Cl)c(O)c(Cl)c6OC)[C@@H](C)O5)[C@@H](C)O4)O[C@]3(C)[C@@H]2OCC(=O)OC)[C@@]1(C)O
MIC (Staphylococcus sp.): 32 µg/mL (≈ 17.2 µM)
MIC (Enterococcus sp.): 4 µg/mL (≈ 2.15 µM)

Compound: COC[C@H]1O[C@@H](O[C@@H]2OC[C@@H]3O[C@@]4(OC[C@@H](OC(=O)c5c(C)cc(O)cc5O)[C@@H]5OCO[C@H]54)O[C@H]3[C@H]2O)[C@@H](OC)[C@@H](O)[C@@H]1O[C@@H]1O[C@H](C)[C@H](OC)[C@H](O[C@@H]2O[C@H](C)[C@H]3O[C@]4(C[C@@H](O)[C@H](O[C@H]5C[C@@H](O[C@H]6C[C@](C)(NC(=O)[C@@H](CCCCNC(=O)OCc7ccccc7)NC(=O)OCc7ccccc7)[C@@H](OC)[C@H](C)O6)[C@H](OC(=O)c6c(C)c(Cl)c(O)c(Cl)c6OC)[C@@H](C)O5)[C@@H](C)O4)O[C@]3(C)[C@@H]2O)[C@@]1(C)O
MIC (Staphylococcus sp.): 32 µg/mL (≈ 15.9 µM)
MIC (Enterococcus sp.): 8 µg/mL (≈ 3.98 µM)

Compound: COC[C@H]1O[C@@H](O[C@@H]2OC[C@@H]3O[C@@]4(OC[C@@H](OC(=O)c5c(C)cc(O)cc5O)[C@@H]5OCO[C@H]54)O[C@H]3[C@H]2OC)[C@@H](OC)[C@@H](OC)C1O[C@@H]1O[C@H](C)[C@H](OC)C(O[C@@H]2O[C@H](C)[C@H]3O[C@]4(C[C@@H](OC)[C@H](O[C@H]5C[C@@H](O[C@H]6C[C@](C)([N+](=O)[O-])[C@@H](OC)[C@H](C)O6)[C@H](OC(=O)c6c(C)c(Cl)c(O)c(Cl)c6OC)[C@@H](C)O5)[C@@H](C)O4)O[C@]3(C)[C@@H]2OC)[C@@]1(C)OC (stereo partly specified)
MIC (Staphylococcus sp.): 16 µg/mL (≈ 9.33 µM)
MIC (Enterococcus sp.): 4 µg/mL (≈ 2.33 µM)

Compound: COC[C@H]1O[C@@H](O[C@@H]2OC[C@@H]3O[C@@]4(OC[C@@H](OC(=O)c5c(C)cc(O)cc5O)[C@@H]5OCO[C@H]54)O[C@H]3[C@H]2O)[C@@H](OC)[C@@H](O)[C@@H]1O[C@@H]1O[C@H](C)[C@H](OC)[C@H](O[C@@H]2O[C@H](C)[C@H]3O[C@]4(C[C@@H](O)[C@H](O[C@H]5C[C@@H](O[C@H]6C[C@](C)(NC(=O)[C@H](C)N)[C@@H](OC)[C@H](C)O6)[C@H](OC(=O)c6c(C)c(Cl)c(O)c(Cl)c6OC)[C@@H](C)O5)[C@@H](C)O4)O[C@]3(C)[C@@H]2O)[C@@]1(C)O
MIC (Staphylococcus sp.): 4 µg/mL (≈ 2.37 µM)
MIC (Enterococcus sp.): 4 µg/mL (≈ 2.37 µM)

Molecules with a lower MIC (Staphylococcus sp.), results first:

MIC (Staphylococcus sp.): 1 µg/mL (≈ 0.603 µM)
MIC (Enterococcus sp.): 2 µg/mL (≈ 1.21 µM)
Compound: COC[C@H]1O[C@@H](O[C@@H]2OC[C@@H]3O[C@@]4(OC[C@@H](OC(=O)c5c(C)cc(O)cc5O)[C@@H]5OCO[C@H]54)O[C@H]3[C@H]2O)[C@@H](OC)[C@@H](O)[C@@H]1O[C@@H]1O[C@H](C)[C@H](OC)[C@H](O[C@@H]2O[C@H](C)[C@H]3O[C@]4(C[C@@H](O)[C@H](O[C@H]5C[C@@H](O[C@H]6C[C@](C)(NC(C)=O)[C@@H](OC)[C@H](C)O6)[C@H](OC(=O)c6c(C)c(Cl)c(O)c(Cl)c6OC)[C@@H](C)O5)[C@@H](C)O4)O[C@]3(C)[C@@H]2O)[C@@]1(C)O

MIC (Staphylococcus sp.): 2 µg/mL (≈ 1.17 µM)
MIC (Enterococcus sp.): 2 µg/mL (≈ 1.17 µM)
Compound: COC[C@H]1O[C@@H](O[C@@H]2OC[C@@H]3O[C@@]4(OC[C@@H](OC(=O)c5c(C)cc(O)cc5O)[C@@H]5OCO[C@H]54)O[C@H]3[C@H]2OCCN=[N+]=[N-])[C@@H](OC)[C@@H](O)[C@@H]1O[C@@H]1O[C@H](C)[C@H](OC)[C@H](O[C@@H]2O[C@H](C)[C@H]3O[C@]4(C[C@@H](O)[C@H](O[C@H]5C[C@@H](O[C@H]6C[C@](C)([N+](=O)[O-])[C@@H](OC)[C@H](C)O6)[C@H](OC(=O)c6c(C)c(Cl)c(O)c(Cl)c6OC)[C@@H](C)O5)[C@@H](C)O4)O[C@]3(C)[C@@H]2O)[C@@]1(C)O

MIC (Staphylococcus sp.): 2 µg/mL (≈ 1.06 µM)
MIC (Enterococcus sp.): 2 µg/mL (≈ 1.06 µM)
Compound: COC[C@H]1O[C@@H](O[C@@H]2OC[C@@H]3O[C@@]4(OC[C@@H](OC(=O)c5c(C)cc(O)cc5O)[C@@H]5OCO[C@H]54)O[C@H]3[C@H]2O)[C@@H](OC)[C@@H](O)[C@@H]1O[C@@H]1O[C@H](C)[C@H](OC)[C@H](O[C@@H]2O[C@H](C)[C@H]3O[C@]4(C[C@@H](O)[C@H](O[C@H]5C[C@@H](O[C@H]6C[C@](C)(NC(=O)[C@H](CCSC)NC(=O)OCc7ccccc7)[C@@H](OC)[C@H](C)O6)[C@H](OC(=O)c6c(C)c(Cl)c(O)c(Cl)c6OC)[C@@H](C)O5)[C@@H](C)O4)O[C@]3(C)[C@@H]2O)[C@@]1(C)O

MIC (Staphylococcus sp.): 2 µg/mL (≈ 1.24 µM)
MIC (Enterococcus sp.): 4 µg/mL (≈ 2.48 µM)
Compound: COC[C@H]1O[C@@H](O[C@@H]2OC[C@@H]3O[C@@]4(OC[C@@H](OC(=O)c5c(C)cc(O)cc5O)[C@@H]5OCO[C@H]54)O[C@H]3[C@H]2O)[C@@H](OC)[C@@H](O)[C@@H]1O[C@@H]1O[C@H](C)[C@H](OC)[C@H](O[C@@H]2O[C@H](C)[C@H]3O[C@]4(C[C@@H](O)[C@H](O[C@H]5C[C@@H](O[C@H]6C[C@](C)(N)[C@@H](OC)[C@H](C)O6)[C@H](OC(=O)c6c(C)c(Cl)c(O)c(Cl)c6OC)[C@@H](C)O5)[C@@H](C)O4)O[C@]3(C)[C@@H]2O)[C@@]1(C)O

MIC (Staphylococcus sp.): 1 µg/mL (≈ 0.592 µM)
MIC (Enterococcus sp.): 0.5 µg/mL (≈ 0.296 µM)
Compound: COC[C@H]1O[C@@H](O[C@@H]2OC[C@@H]3O[C@@]4(OC[C@@H](OC(=O)c5c(C)cc(O)cc5O)[C@@H]5OCO[C@H]54)O[C@H]3[C@H]2OCCO)[C@@H](OC)[C@@H](O)[C@@H]1O[C@@H]1O[C@H](C)[C@H](OC)[C@H](O[C@@H]2O[C@H](C)[C@H]3O[C@]4(C[C@@H](O)[C@H](O[C@H]5C[C@@H](O[C@H]6C[C@](C)([N+](=O)[O-])[C@@H](OC)[C@H](C)O6)[C@H](OC(=O)c6c(C)c(Cl)c(O)c(Cl)c6OC)[C@@H](C)O5)[C@@H](C)O4)O[C@]3(C)[C@@H]2O)[C@@]1(C)O

MIC (Staphylococcus sp.): 2 µg/mL (≈ 1.16 µM)
MIC (Enterococcus sp.): 4 µg/mL (≈ 2.31 µM)
Compound: COC[C@H]1O[C@@H](O[C@@H]2OC[C@@H]3O[C@@]4(OC[C@@H](OC(=O)c5c(C)cc(O)cc5O)[C@@H]5OCO[C@H]54)O[C@H]3[C@H]2OCCNC(C)=O)[C@@H](OC)[C@@H](O)[C@@H]1O[C@@H]1O[C@H](C)[C@H](OC)[C@H](O[C@@H]2O[C@H](C)[C@H]3O[C@]4(C[C@@H](O)[C@H](O[C@H]5C[C@@H](O[C@H]6C[C@](C)([N+](=O)[O-])[C@@H](OC)[C@H](C)O6)[C@H](OC(=O)c6c(C)c(Cl)c(O)c(Cl)c6OC)[C@@H](C)O5)[C@@H](C)O4)O[C@]3(C)[C@@H]2O)[C@@]1(C)O

MIC (Staphylococcus sp.): 2 µg/mL (≈ 1.23 µM)
MIC (Enterococcus sp.): 0.25 µg/mL (≈ 0.153 µM)
Compound: COC[C@H]1O[C@@H](O[C@@H]2OC[C@@H]3O[C@@]4(OC[C@@H](OC(=O)c5c(C)cc(O)cc5O)[C@@H]5OCO[C@H]54)O[C@H]3[C@H]2O)[C@@H](OC)[C@@H](O)[C@@H]1O[C@@H]1O[C@H](C)[C@H](OC)[C@H](O[C@@H]2O[C@H](C)[C@H]3O[C@]4(C[C@@H](O)[C@H](O[C@H]5C[C@@H](O[C@H]6C[C@](C)([N+](=O)[O-])[C@@H](OC)[C@H](C)O6)[C@H](OC(=O)c6c(C)c(Cl)c(O)c(Cl)c6OC)[C@@H](C)O5)[C@@H](C)O4)O[C@]3(C)[C@@H]2O)[C@H]1O [EVERNIMICIN]
